Consider 26 molecules from patent publication US8258138B2, “Potassium channel blockers” (Xention Limited, priority 2008, dated 2012).

T1 sequence (P22001 whole entry): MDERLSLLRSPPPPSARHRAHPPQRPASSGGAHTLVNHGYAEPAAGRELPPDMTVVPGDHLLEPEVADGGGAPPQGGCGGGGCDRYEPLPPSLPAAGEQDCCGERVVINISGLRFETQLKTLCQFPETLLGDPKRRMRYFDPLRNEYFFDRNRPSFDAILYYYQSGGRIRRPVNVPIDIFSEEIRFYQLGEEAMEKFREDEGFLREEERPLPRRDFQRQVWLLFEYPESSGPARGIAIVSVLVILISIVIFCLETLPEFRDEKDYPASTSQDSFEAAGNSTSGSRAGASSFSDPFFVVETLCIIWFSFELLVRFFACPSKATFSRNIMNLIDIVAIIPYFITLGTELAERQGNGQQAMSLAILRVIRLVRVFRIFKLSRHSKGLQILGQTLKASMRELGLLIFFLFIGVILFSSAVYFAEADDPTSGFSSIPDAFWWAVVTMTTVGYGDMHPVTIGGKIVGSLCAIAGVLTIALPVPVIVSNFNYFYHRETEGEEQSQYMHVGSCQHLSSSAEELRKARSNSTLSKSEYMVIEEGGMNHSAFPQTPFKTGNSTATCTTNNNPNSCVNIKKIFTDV

One experiment concerns the target T1, human Kv1.3 (Homo sapiens, UniProt P22001).
T1 construct: expressed in transfected cells; host or cells: stably transfected cells grown in medium for CHO cells
Description: Kv1.3 Autopatch electrophysiology (whole cell patch-clamp, inhibition of charge movement). It is filed as cell-based. Particulars: compound at 1 μM; cells stably transfected with human Kv1.3; room temperature; total charge during step to +30 mV relative to control. Here is the method: Kv1.3 Autopatch Electrophysiology Method
Compounds were tested on these cells using the AutoPatch technology in whole cell mode.
The external bathing solution contained (in mM): 150 NaCl, 10 KCl, 1 MgCl2, 3 CaCl2, 10 HEPES, pH 7.4 with NaOH. Patch pipettes were filled with an electrode solution of composition (in mM): 100 K-Gluconate, 20 KCl, 1 MgCl2, 1 CaCl2, 10 HEPES, 11 EGTA, 5 ATP-Na2, 2 Glutathione pH 7.2 with KOH.
Compounds were dissolved in DMSO (100%) and made up in the external bather at a concentration of 1 μM immediately prior to use. All experiments were conducted at room temperature.
A cell suspension (10 ml), with a density of 6×10^6 cells, was aliquoted into a 15 ml centrifuge tube and stored at 4° C. before use. Prior to use a tube was taken and centrifuged at 1000 rpm for 4 mins at room temperature. The supernatant was then discarded, leaving a cell pellet at the bottom of the tube. The pellet was then resuspended using 1 ml of cold (4° C.), filtered (0.22 μm), 0.05% BSA/bather solution (0.05 g BSA/100 ml bather). The bottom of the tube was manually agitated followed by gentle tituration. The cell suspension was then placed in the AutoPatch™ temperature controlled cell-hotel at 14° C. and regularly titurated.
A length of Teflon capillary tubing was dipped into the cell suspension solution, and a column of fluid was taken up by negative pressure. The column of fluid was in electrically connectivity with a Ag/AgCl reference electrode. Borosilicate glass patch pipettes (from 1.5 mm OD, thin-walled filamented, GC150-TF capillary glass, Harvard) were pulled using a DMZ pipette puller (Zeitz Instruments), and were back-filled using the internal pipette solution, being careful that no bubbles remained at the tip or in the body of the pipette. Patch pipettes typically had resistances of 2.5-3.5 MΩ. Once filled, the pipette tip and a proportion of the shaft (˜15 mm) were dipped into Sigmacote (Sigma). The recording pipettes were placed in a multiwell array and mounted on the AutoPatch™ machine. Automated patch-clamping and drug-application was initiated by the operator, but thereafter AutoPatch.exe continued the experiment providing that pre-set conditions and criteria were satisfied.
Whole cell patch-clamp recordings were made using the AutoPatch™ rig, which incorporated an EPC9 or EPC10 amplifier (HEKA, Germany) under control of Pulse software (v8.54 or v8.76, HEKA, Germany), a cell applicator, automated drug application system (DAS), valve controller (VF1) and a suction device all at room temperature. This equipment was completely under the control of AutoPatch.exe and operator intervention was only made when there was a requirement to refill the bather reservoirs or to prevent the loss of a cell due to a technical error.
Cells were continuously perfused with external solution at a flow rate of ˜2 ml/minute.
Electrophysiology voltage-step protocols and analysis of data was performed as follows. Data were sampled at 5 kHz, and filtered with a −3 dB bandwidth of 2.5 kHz. Cells were held at a voltage of −80 mV. Currents were evoked by a voltage step to +30 mV for 500 ms in duration applied every 15 s. Online analysis of the hKv1.3 current during the application of compounds was performed by the Pulse (v8.54 or v8.76, HEKA, Germany), Excel (Microsoft, USA) and AutoPatch™ software, with the total charge measured during the whole of voltage step. Inhibition of charge movement in the presence of drug was calculated relative to control.
(The patch-clamp technique gives a direct electrical read-out from membranes.)
“1-Methyl-1H-imidazole-4-sulfonic acid benzyl-[4-(3-phenyl-piperidine-1-carbonyl)-phenyl]-amide [Example 64]” displayed a hKv1.3 % inh. of 86%.

The molecule `CN(C)S(=O)(=O)N(Cc1ccccc1)c1ccc(C(=O)N2CCN(c3ccccc3C#N)CC2)cc1` [Example 5, N-Benzyl-N′N′-dimethyl-N-{4-[4-(2-cyano-phenyl)-piperazine-1-carbonyl]-phenyl}-sulfamide] showed a hKv1.3 % inh. of 42%.

For the molecule `CC(C)c1noc(C2CCCN(C(=O)c3ccc(N(Cc4ccccc4)S(=O)(=O)N(C)C)cc3)C2)n1` (centres unmarked) [Example 69, N-Benzyl-N′N′-dimethyl-N-{4-[3-(3-isopropyl-[1,2,4]oxadiazol-5-yl)-piperidine-1-carbonyl]-phenyl}-sulfamide], the hKv1.3 % inh. is 31%.

`CN(C)S(=O)(=O)N(Cc1ccccc1)c1ccc(C(=O)N2CCC(OCc3ccccc3)C2)cc1` (centres unmarked) [Example 70, N-Benzyl-N′N′-dimethyl-N-[4-(3-benzyloxy-pyrrolidine-1-carbonyl)-phenyl]-sulfamide] showed a hKv1.3 % inh. of 26%.

For `CN(C)S(=O)(=O)N(Cc1ccccc1)c1ccc(C(=O)N2CCC(O)(c3ccccc3)CC2)cc1` [Example 71, N-Benzyl-N′N′-dimethyl-N-[4-(4-hydroxy-4-phenyl-piperidine-1-carbonyl)-phenyl]-sulfamide], the hKv1.3 % inh. is listed as 27%.

`CN(C)S(=O)(=O)N(Cc1ccccc1)c1ccc(C(=O)N2CCC(Oc3ccccc3)CC2)cc1` [Example 72, N-Benzyl-N′N′-dimethyl-N-[4-(4-phenoxy-piperidine-1-carbonyl)-phenyl]-sulfamide] showed a hKv1.3 % inh. of 68%.

Staying with this experiment, now noted: compound at 1 μM; cells stably transfected with human Kv1.3; room temperature; total charge during step to +30 mV relative to control; read-out: hKv1.3 % inh.
As to `N#Cc1ccc(CN(c2ccc(C(=O)N3CCN(c4ccccc4)CC3)cc2)S(=O)(=O)c2ccccc2)cc1` [Example 2, N-(4-Cyano-benzyl)-N-[4-(4-phenyl-piperazine-1-carbonyl)-phenyl]-benzenesulfonamide], the inhibition at 1 µM amounted to 76%.

Turning to `O=C(c1ccc(N(Cc2ccccc2)S(=O)(=O)c2ccccc2)cc1)N1CCCCC1` [Example 3, N-Benzyl-N-[4-(piperidine-1-carbonyl)-phenyl]-benzenesulfonamide], the inhibition at 1 µM amounted to 94%.

Consider `Cc1ccc(C2CCCN(C(=O)c3ccc(N(Cc4ccc(Cl)cc4)S(=O)(=O)c4ccccc4)cc3)C2)cc1` (centres unmarked) [Example 4, N-(4-Chloro-benzyl)-N-[4-(3-p-tolyl-piperidine-1-carbonyl)-phenyl]-benzenesulfonamide], for which the inhibition at 1 µM came to 67%.

With `CN(C)S(=O)(=O)N(Cc1ccccc1)c1ccc(C(=O)N2CCOC(c3ccccc3)C2)cc1` (centres unmarked) [Example 6, N-Benzyl-N-[4-(2-phenyl-morpholine-4-carbonyl)-phenyl]-N′,N′-dimethylsulfamide], the inhibition at 1 µM was found to be 60%.

With `CN1CCN(C(=O)c2ccc(N(Cc3ccccc3)S(=O)(=O)c3cn(C)cn3)cc2)CC1` [Example 7, 1-Methyl-1H-imidazole-4-sulfonic acid benzyl-[4-(4-methyl-piperazine-1-carbonyl)-phenyl]-amide], the inhibition at 1 µM worked out at 38%.

In the case of `O=C(c1ccc(N(Cc2ccccc2)S(=O)(=O)c2ccc3ccccc3c2)cc1)N1CCN(c2ccccc2)CC1` [Example 13, Naphthalene-2-sulfonic acid benzyl-[4-(4-phenyl-piperazine-1-carbonyl)-phenyl]-amide], the inhibition at 1 µM stood at 51%.

`N#Cc1ccc(S(=O)(=O)N(Cc2ccccc2)c2ccc(C(=O)N3CCN(c4ccccc4)CC3)cc2)cc1` [Example 22, N-Benzyl-4-cyano-N-[4-(4-phenyl-piperazine-1-carbonyl)-phenyl]-benzenesulfonamide]: the inhibition at 1 µM came to 39%.

In the case of `Cc1cccc(S(=O)(=O)N(Cc2ccccc2)c2ccc(C(=O)N3CCN(c4ccccc4)CC3)cc2)c1` [Example 27, N-Benzyl-3-methyl-N-[4-(4-phenyl-piperazine-1-carbonyl)-phenyl]-benzenesulfonamide], the inhibition at 1 µM amounted to 55%.

As for `Cc1ccccc1CN(c1ccc(C(=O)N2CCN(c3ccccc3)CC2)cc1)S(=O)(=O)c1ccccc1` [Example 34, N-(2-Methyl-benzyl)-N-[4-(4-phenyl-piperazine-1-carbonyl)-phenyl]-benzenesulfonamide], the inhibition at 1 µM was found to be 85%.

`O=C(c1ccc(N(Cc2ccc(C(F)(F)F)cc2)S(=O)(=O)c2ccccc2)cc1)N1CCN(c2ccccc2)CC1` [Example 36, N-[4-(4-Phenyl-piperazine-1-carbonyl)-phenyl]-N-(4-trifluoromethyl-benzyl)-benzenesulfonamide]: the inhibition at 1 µM was 50%.

As to `O=C(c1ccc(N(Cc2cccc(OC(F)(F)F)c2)S(=O)(=O)c2ccccc2)cc1)N1CCN(c2ccccc2)CC1` [Example 37, N-[4-(4-Phenyl-piperazine-1-carbonyl)-phenyl]-N-(3-trifluoromethoxy-benzyl)-benzenesulfonamide], the inhibition at 1 µM stood at 46%.

For `N#Cc1ccccc1CN(c1ccc(C(=O)N2CCN(c3ccccc3)CC2)cc1)S(=O)(=O)c1ccccc1` [Example 38, N-(2-Cyano-benzyl)-N-[4-(4-phenyl-piperazine-1-carbonyl)-phenyl]-benzenesulfonamide], the inhibition at 1 µM worked out at 50%.

Turning to `O=C(c1ccc(N(Cc2ccccc2)S(=O)(=O)c2ccco2)cc1)N1CCN(c2ccccc2)CC1` [Example 41, Furan-2-sulfonic acid benzyl-[4-(4-phenyl-piperazine-1-carbonyl)-phenyl]-amide], the inhibition at 1 µM came out at 81%.

`COc1cccc(CN(c2ccc(C(=O)N3CCN(c4ccccc4)CC3)cc2)S(=O)(=O)c2cn(C)cn2)c1` [Example 45, 1-Methyl-1H-imidazole-4-sulfonic acid (3-methoxy-benzyl)-[4-(4-phenyl-piperazine-1-carbonyl)-phenyl]-amide]: the inhibition at 1 µM was 54%.

As for `Cc1ncc(S(=O)(=O)N(Cc2ccccc2)c2ccc(C(=O)N3CCN(c4ccccc4)CC3)cc2)n1C` [Example 47, 2,3-Dimethyl-3H-imidazole-4-sulfonic acid benzyl-[4-(4-phenyl-piperazine-1-carbonyl)-phenyl]-amide], the inhibition at 1 µM is 50%.

Take `CC1CN(C(=O)c2ccc(N(Cc3ccccc3)S(=O)(=O)c3ccccc3)cc2)CC(C)O1` (centres unmarked) [Example 56, N-Benzyl-N-[4-(2,6-dimethyl-morpholine-4-carbonyl)-phenyl]-benzenesulfonamide]: the inhibition at 1 µM is 42%.

For `O=C(c1ccc(N(Cc2ccccc2)S(=O)(=O)c2ccccc2)cc1)N1CCC(O)(c2ccccc2)CC1` [Example 58, N-Benzyl-N-[4-(4-hydroxy-4-phenyl-piperidine-1-carbonyl)-phenyl]benzenesulfonamide], the inhibition at 1 µM worked out at 81%.

On to `Cc1noc(C2CCCN(C(=O)c3ccc(N(Cc4ccc(Cl)cc4)S(=O)(=O)c4cn(C)cn4)cc3)C2)n1` (centres unmarked) [Example 60, 1-Methyl-1H-imidazole-4-sulfonic acid (4-chloro-benzyl)-{4-[3-(3-methyl-[1,2,4]oxadiazol-5-yl)-piperidine-1-carbonyl]-phenyl}-amide], for which the inhibition at 1 µM is 83%.

Turning to `Cc1noc(C2CCCN(C(=O)c3ccc(N(Cc4ccccc4)S(=O)(=O)c4cn(C)cn4)cc3)C2)n1` (centres unmarked) [Example 65, 1-Methyl-1H-imidazole-4-sulfonic acid benzyl-{4-[3-(3-methyl-[1,2,4]oxadiazol-5-yl)-piperidine-1-carbonyl]-phenyl}-amide], the inhibition at 1 µM came to 57%.

On to `Cn1cnc(S(=O)(=O)N(Cc2ccc(Cl)cc2)c2ccc(C(=O)N3CCCCC3)cc2)c1` [Example 67, 1-Methyl-1H-imidazole-4-sulfonic acid (4-chloro-benzyl)-[4-(piperidine-1-carbonyl)-phenyl]-amide], for which the inhibition at 1 µM is 43%.
